Here are results for 18 compounds from patent US20210205292A1, “INHIBITORS OF CREB-CBP INTERACTION FOR TREATMENT OF LEUKEMIA” (The Board of Trustees of the Leland Stanford Junior …, priority 2016, published 2021).

Assay [1] relates to HL-60 cells. The experiment in a line: HL-60 viability, combination of Compound A with kinase inhibitors. In kind it is cell-based, human. As to conditions: 48 hours.
For assay [2], the system named is CREB phosphorylation. The experiment in a line: CREB phosphorylation in HL-60 cells. In kind it is cell-based, human. As to conditions: HL-60 cells; BI-D1870 5 μM, SB202190 10 μM, U0126 10 μM. The source says:
FIG. 12, panels A-D, illustrates the results of CyTOF Phenotyping and Compound A Combination Studies. […] Viability for Compound A treatment alone was 87.4±7.3%, versus 55.3±3.4% and 49.5±2.3% when combined with ERK and RSK inhibitors, respectively (* indicates p<0.05 compared to cells treated with Compound A alone). Panel D) Compound A inhibits CREB phosphorylation in the presence of serum. HL-60 cells were serum-starved then stimulated with serum.
Cells were lysed in RIPA buffer (Sigma), and the protein concentrations were determined by BCA assay (Thermo Scientific Pierce). Lysates were solubilized in 6×SDS PAGE buffer and […] of protein was loaded into 6-15% SDS PAGE gels, pheresed, and then transferred onto […] PVDF membrane (Millipore). Primary antibodies were applied at a dilution of 1:1000. Anti-Bcl-2, -Bax, -Mcl-1, -Bcl-XL, -Cyclin A and -Cyclin D1 antibodies were purchased from Cell Signaling Technologies. Anti-total acetylated histone and -ac-H3K27 were purchased from Santa Cruz Biotechnologies. Anti-actin and -CREB antibodies were purchased from upstate. Secondary antibodies were used at a 1:2500 dilution and purchased from Thermo Scientific/Pierce. WesternBright ECL was used for image acquisition on Image Lab software (Bio-Rad).

In assay [3] the test system is Nalm6 (human ALL cell line). The experiment in a line: CellTiter Glo assay in Nalm6 cells. In kind it is cell-based. Here is the method:
(§1) The compounds prepared according to the methods described herein and tested for activity in the CellTiter Glo assay in HL60 (Human promyelocytic leukemia cell line), Jukat (human T lymphocyte cell line for acute T cell leukemia) and/or Nalm6 (human ALL cell line) cells.
(§2) Compounds were prepared according to the methods described herein and tested for activity in the CellTiter Glo assay in HL60 (Human promyelocytic leukemia cell line), Jukat (human T lymphocyte cell line for acute Tcell leukemia) and/or Nalm6 (human ALL cell line) cells.

In assay [4] the test system is HL60 (Human promyelocytic leukemia cell line). The experiment in a line: CellTiter Glo assay in HL60 cells. In kind it is cell-based. The procedure: as §1, §2
The subject of assay [5] is Jukat (human T lymphocyte cell line for acute T cell leukemia). The experiment in a line: CellTiter Glo assay in Jukat cells. In kind it is cell-based. Here is the method: as §1, §2

Regarding `CC(C)CCN1c2nc(Nc3cc(F)c(O)c(F)c3)ncc2N(C)C(=O)C1C` (centres unmarked) [BI-D1870, reference compound], the “effect of combination with Compound A on viability” value in assay [1] is “additive effects”. Moreover, the “compensatory CREB phosphorylation following Compound A treatment” value in assay [2] was “blocked compensatory CREB phosphorylation”.

For `Cc1ccc(NC(=O)c2cc(F)ccc2O)cc1C(F)(F)F` [Compound 49], the IC50 in assay [3] (NALM-6, second Table 4) was 1 to 10 µM; in assay [4] (HL-60, second Table 4) it was less than 1 µM; in assay [5] (second Table 4), 1 to 10 µM.

In the case of `O=C(Nc1cccc(C(F)(F)F)c1)c1cc(F)ccc1O` [Compound 50], the IC50 is 1 to 10 µM in assay [3] (NALM-6, second Table 4); less than 1 µM in assay [4] (HL-60, second Table 4); less than 1 µM in assay [5] (second Table 4).

As for `O=C(Nc1cc(C(F)(F)F)cc(C(F)(F)F)c1)c1cc(F)ccc1O` [Compound 51], the IC50 in assay [3] (NALM-6, second Table 4) was less than 1 µM; in assay [4] (HL-60, second Table 4) it was less than 1 µM; in assay [5] (second Table 4) it was less than 1 µM.

Take `O=C(Nc1cccc(OC(F)(F)F)c1)c1cc(F)ccc1O` [Compound 52]: the IC50 in assay [3] (NALM-6, second Table 4) was 1 to 10 µM; in assay [4] (HL-60, second Table 4) it was less than 1 µM; in assay [5] (second Table 4), less than 1 µM.

In the case of `COc1ccc(NC(=O)c2cc(F)ccc2O)cc1` [Compound 54], the IC50 in assay [3] (NALM-6, second Table 4) is more than 10 µM; in assay [4] (HL-60, second Table 4) it was 1 to 10 µM; in assay [5] (second Table 4) it was more than 10 µM.

In the case of `Cc1cc(NC(=O)c2cc(F)ccc2O)ccc1F` [Compound 56], the IC50 in assay [3] (NALM-6, second Table 4) was 1 to 10 µM; in assay [4] (HL-60, second Table 4) it was 1 to 10 µM; in assay [5] (second Table 4), less than 1 µM.

As to `CCOC(=O)c1ccc(NC(=O)c2cc(F)ccc2O)cc1` [Compound 57], the IC50 in assay [3] (NALM-6, second Table 4) lay in the range of 1 to 10 µM; in assay [4] (HL-60, second Table 4), 1 to 10 µM; in assay [5] (second Table 4) it was 1 to 10 µM.

For the compound `CCOC(=O)c1cccc(NC(=O)c2cc(F)ccc2O)c1` [Compound 58], the IC50 in assay [3] (NALM-6, second Table 4) is 1 to 10 µM; in assay [4] (HL-60, second Table 4), less than 1 µM; in assay [5] (second Table 4) it was 1 to 10 µM.

On to `Cc1ccc(C(F)(F)F)cc1NC(=O)c1cc(F)ccc1O` [Compound 63], for which the IC50 in assay [3] (NALM-6, second Table 4) was 1 to 10 µM; in assay [4] (HL-60, second Table 4), less than 1 µM; in assay [5] (second Table 4), less than 1 µM.

`N#Cc1ccc(NC(=O)c2ccc3cccnc3c2O)cc1` [Compound 64]: the IC50 in assay [3] (NALM-6, Table 5) is less than 0.1 µM; in assay [4] (HL-60, Table 5), 0.1 to 1 µM; in assay [5] (Table 5), 0.1 to 1 µM.

As to `N#Cc1ccc(NC(=O)c2cc(-c3ccccc3)c3cccnc3c2O)cc1` [Compound 65], the IC50 is 0.1 to 1 µM in assay [3] (NALM-6, Table 5); 0.1 to 1 µM in assay [4] (HL-60, Table 5); 0.1 to 1 µM in assay [5] (Table 5).

Take `O=C(Nc1ccc(C(F)(F)F)cc1)c1ccc2cccnc2c1O` [Compound 66]: the IC50 in assay [3] (NALM-6, Table 5) fell in the range of 0.1 to 1 µM; in assay [4] (HL-60, Table 5) it was 0.1 to 1 µM; in assay [5] (Table 5), 0.1 to 1 µM.

For the compound `O=C(Nc1ccc(Cl)cc1)c1ccc2cccnc2c1O` [Compound 67], the IC50 in assay [3] (NALM-6, Table 5) fell in the range of 0.1 to 1 µM; in assay [4] (HL-60, Table 5) it was 0.1 to 1 µM; in assay [5] (Table 5), 0.1 to 1 µM.

Turning to `O=C(Nc1ccc(Br)c(Cl)c1)c1ccc2cccnc2c1O` [Compound 68], the IC50 is 0.1 to 1 µM in assay [3] (NALM-6, Table 5); 0.1 to 1 µM in assay [4] (HL-60, Table 5); 0.1 to 1 µM in assay [5] (Table 5).

As for `O=C(Nc1cc(F)cc(F)c1)c1ccc2cccnc2c1O` [Compound 69], the IC50 is 0.1 to 1 µM in assay [3] (NALM-6, Table 5); 0.1 to 1 µM in assay [4] (HL-60, Table 5); 0.1 to 1 µM in assay [5] (Table 5).

Take `O=C(Nc1cc(C(F)(F)F)cc(C(F)(F)F)c1)c1ccc2cccnc2c1O` [Compound 70]: the IC50 in assay [3] (NALM-6, Table 5) fell in the range of 1 to 10 µM; in assay [4] (HL-60, Table 5) it was 1 to 10 µM; in assay [5] (Table 5) it was 0.1 to 1 µM.

Regarding `N#Cc1ccc(NC(=O)c2cc(Br)c3cccnc3c2O)cc1` [Compound 71], the IC50 was less than 0.1 µM in assay [3] (NALM-6, Table 5); 0.1 to 1 µM in assay [4] (HL-60, Table 5); less than 0.1 µM in assay [5] (Table 5).
